Source: ChEMBL document CHEMBL1909046, “DrugMatrix in vitro pharmacology data”

How the values were obtained:
[1] = biological target: Sodium-dependent noradrenaline transporter (Homo sapiens, UniProt P23975); experiment: DRUGMATRIX: Norepinephrine Transporter radioligand binding (ligand: [125I] RTI-55); type: cell membranes, MDCK, Membrane; conditions: Not Active = under 50% inhibition at 10 µM; for Ki: read-out: Ki
[2] = DRUGMATRIX: Platelet-Derived Growth Factor (PDGF) radioligand binding (ligand: [125I] PDGF); type: cell-based; conditions: nih3t3; Not Active = under 50% inhibition at 10 µM
Calcitonin receptor = biological target: T1, Calcitonin receptor (Homo sapiens, UniProt P30988); type: cell membranes, Membrane; conditions: t47d; note: in other assays of this panel Not Active means under 50% inhibition at 10 µM
T1 sequence (P30988 whole entry): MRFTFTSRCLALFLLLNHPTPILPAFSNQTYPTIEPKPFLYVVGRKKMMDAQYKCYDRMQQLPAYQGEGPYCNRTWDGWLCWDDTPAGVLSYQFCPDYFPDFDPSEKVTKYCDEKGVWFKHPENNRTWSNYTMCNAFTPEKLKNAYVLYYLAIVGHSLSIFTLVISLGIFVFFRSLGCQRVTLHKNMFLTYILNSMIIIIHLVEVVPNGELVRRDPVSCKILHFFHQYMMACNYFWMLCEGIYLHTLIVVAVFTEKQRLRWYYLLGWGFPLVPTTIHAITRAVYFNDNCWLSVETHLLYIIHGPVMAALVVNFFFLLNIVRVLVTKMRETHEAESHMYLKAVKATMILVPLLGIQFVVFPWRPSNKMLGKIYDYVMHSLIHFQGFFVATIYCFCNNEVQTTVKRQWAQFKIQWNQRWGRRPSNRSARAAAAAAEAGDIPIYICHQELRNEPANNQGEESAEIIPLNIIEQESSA

Interstitial collagenase = biological target: T2, Interstitial collagenase (Homo sapiens, UniProt P03956); experiment: biochemical; type: tissue-based, Rheumatoid synovial fibroblasts;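 note: MMP-1 enzyme inhibition assay using a peptide substrate; in other assays of this panel Not Active means under 50% inhibition at 10 µM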
T2 sequence (P03956 whole entry): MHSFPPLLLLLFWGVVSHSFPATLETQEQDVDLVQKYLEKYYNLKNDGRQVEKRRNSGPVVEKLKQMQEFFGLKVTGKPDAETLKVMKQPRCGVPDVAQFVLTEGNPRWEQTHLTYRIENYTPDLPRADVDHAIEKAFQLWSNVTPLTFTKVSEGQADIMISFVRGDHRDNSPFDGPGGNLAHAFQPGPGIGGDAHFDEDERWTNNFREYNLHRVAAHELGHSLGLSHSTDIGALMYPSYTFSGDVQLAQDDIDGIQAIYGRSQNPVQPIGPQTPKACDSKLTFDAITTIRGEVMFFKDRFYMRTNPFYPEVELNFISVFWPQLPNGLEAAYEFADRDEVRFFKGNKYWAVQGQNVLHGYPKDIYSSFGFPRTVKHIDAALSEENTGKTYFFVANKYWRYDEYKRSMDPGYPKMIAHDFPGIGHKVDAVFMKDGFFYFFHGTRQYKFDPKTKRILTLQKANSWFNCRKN

[3] = DRUGMATRIX: Potassium Channel [KATP] radioligand binding (ligand: [3H] Glyburide); type: cell membranes, Membrane; conditions: hit-t15; Not Active = under 50% inhibition at 10 µM
[4] = DRUGMATRIX: Imidazoline I2, Central radioligand binding (ligand: [3H] Idazoxan); type: cell membranes, Rattus norvegicus, Wistar, Cerebral cortex, Membrane; conditions: Not Active = under 50% inhibition at 10 µM

Sequence of Sodium-dependent noradrenaline transporter (P23975 whole entry): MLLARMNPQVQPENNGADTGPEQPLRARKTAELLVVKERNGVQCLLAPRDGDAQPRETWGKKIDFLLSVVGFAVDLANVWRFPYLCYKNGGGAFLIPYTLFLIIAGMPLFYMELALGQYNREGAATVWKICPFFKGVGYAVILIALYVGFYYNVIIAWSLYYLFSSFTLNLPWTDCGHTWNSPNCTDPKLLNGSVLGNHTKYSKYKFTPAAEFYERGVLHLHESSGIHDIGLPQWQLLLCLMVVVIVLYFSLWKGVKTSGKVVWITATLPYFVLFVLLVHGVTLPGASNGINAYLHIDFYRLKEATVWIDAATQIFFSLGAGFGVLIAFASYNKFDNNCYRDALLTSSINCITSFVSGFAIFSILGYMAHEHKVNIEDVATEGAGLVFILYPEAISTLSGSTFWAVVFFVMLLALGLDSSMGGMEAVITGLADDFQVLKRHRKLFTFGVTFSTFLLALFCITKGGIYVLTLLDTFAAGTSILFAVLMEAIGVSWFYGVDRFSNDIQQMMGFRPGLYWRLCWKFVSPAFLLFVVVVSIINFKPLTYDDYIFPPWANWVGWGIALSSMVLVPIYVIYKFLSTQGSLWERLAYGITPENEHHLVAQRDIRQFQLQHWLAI

Row | SMILES | IC50 ([1]; read-out: IC50) [µM] | Ki [1] [µM] | IC50 [2] | Ki [2] | IC50 (Calcitonin receptor) | IC50 (Interstitial collagenase) | IC50 [3] | Ki [3] | IC50 [4] | Ki [4] | IC50 ([1]; mdck) | IC50 ([4]; read-out: IC50) [nM] | Ki ([4]; read-out: Ki) [nM]
1 | CCOc1nc2cccc(C(=O)O)c2n1Cc1ccc(-c2ccccc2-c2nnn[nH]2)cc1 | 3.07 | 3.04 | Not Active | Not Active | Not Active | Not Active | Not Active | Not Active | Not Active | Not Active |  |  | 
2 | O=C(O)CCCc1cccs1 |  |  | Not Active | Not Active | Not Active | Not Active | Not Active | Not Active | Not Active | Not Active | Not Active |  | 
3 | COc1ccccc1N |  |  | Not Active | Not Active | Not Active | Not Active | Not Active | Not Active | Not Active | Not Active | Not Active |  | 
4 | O=C(c1ccccc1F)N1CCC(Cc2ccccc2)CC1 |  |  | Not Active | Not Active | Not Active | Not Active | Not Active | Not Active | Not Active | Not Active | Not Active |  | 
5 | Cc1c(O)cccc1C(=O)N[C@@H](CSc1ccccc1)[C@H](O)CN1C[C@H]2CCCC[C@H]2C[C@H]1C(=O)NC(C)(C)C | 8.85 | 8.78 | Not Active | Not Active | Not Active | Not Active | Not Active | Not Active | Not Active | Not Active |  |  | 
6 | CC(O)COC[C@H]1O[C@@H]2O[C@H]3[C@H](O)[C@@H](O)[C@@H](O[C@H]4[C@H](O)[C@@H](O)[C@@H](O[C@H]5[C@H](O)[C@@H](O)[C@@H](O[C@H]6[C@H](O)[C@@H](O)[C@@H](O[C@H]7[C@H](O)[C@@H](O)[C@@H](O[C@H]8[C@H](O)[C@@H](O)[C@@H](O[C@H]1[C@H](O)[C@H]2O)O[C@@H]8COCC(C)O)O[C@@H]7COCC(C)O)O[C@@H]6COCC(C)O)O[C@@H]5COCC(C)O)O[C@@H]4COCC(C)O)O[C@@H]3COCC(C)O (stereo partly drawn) [2-HYDROXYPROPYL-BETA-CYCLODEXTRIN] | 1.27 | 1.26 | Not Active | Not Active | Not Active | Not Active | Not Active | Not Active | Not Active | Not Active |  |  | 
7 | NC(=O)c1cccc(N)c1 [3-AMINOBENZAMIDE] |  |  | Not Active | Not Active | Not Active | Not Active | Not Active | Not Active | Not Active | Not Active | Not Active |  | 
8 | C[C@H]1O[C@H](O[C@H]2[C@H](O)[C@@H](O)[C@@H](O[C@H]3[C@H](O)[C@@H](O)C(O)O[C@@H]3CO)O[C@@H]2CO)[C@H](O)[C@@H](O)[C@@H]1N[C@H]1C=C(CO)[C@@H](O)[C@H](O)[C@H]1O (some centres undefined) [ACARBOSE] |  |  | Not Active | Not Active | Not Active | Not Active | Not Active | Not Active | Not Active | Not Active | Not Active |  | 
9 | CC[C@H]1[C@@H]2C[C@H]3[C@@H]4N(C)c5ccccc5[C@]45C[C@@H]([C@@H]2[C@H]5O)N3[C@@H]1O [AJMALINE] |  |  | Not Active | Not Active | Not Active | Not Active | Not Active | Not Active | Not Active | Not Active | Not Active |  | 
10 | NC12CC3CC(CC(C3)C1)C2 [AMANTADINE] |  |  | Not Active | Not Active | Not Active | Not Active | Not Active | Not Active | Not Active | Not Active | Not Active |  | 
11 | NCCCNCCSP(=O)(O)O [AMIFOSTINE] |  |  | Not Active | Not Active | Not Active | Not Active | Not Active | Not Active | Not Active | Not Active | Not Active |  | 
12 | CN(C)CCC=C1c2ccccc2CCc2ccccc21 [AMITRIPTYLINE] |  |  | Not Active | Not Active | Not Active | Not Active | Not Active | Not Active |  |  |  | 1680 | 1120
13 | CC(=O)Oc1ccccc1C(=O)O [ASPIRIN] |  |  | Not Active | Not Active | Not Active | Not Active | Not Active | Not Active | Not Active | Not Active | Not Active |  | 
14 | CC(C)c1c(C(=O)Nc2ccccc2)c(-c2ccccc2)c(-c2ccc(F)cc2)n1CC[C@@H](O)C[C@@H](O)CC(=O)O [ATORVASTATIN] |  |  | Not Active | Not Active | Not Active | Not Active | Not Active | Not Active | Not Active | Not Active | Not Active |  | 
15 | CC(=O)OC[C@H]1O[C@@H](n2ncc(=O)[nH]c2=O)[C@H](OC(C)=O)[C@@H]1OC(C)=O [AZARIBINE] |  |  | Not Active | Not Active | Not Active | Not Active | Not Active | Not Active | Not Active | Not Active | Not Active |  | 
16 | C[C@H]1[C@H](NC(=O)/C(=N\OC(C)(C)C(=O)O)c2csc(N)n2)C(=O)N1S(=O)(=O)O [AZTREONAM] |  |  | Not Active | Not Active | Not Active | Not Active | Not Active | Not Active | Not Active | Not Active | Not Active |  | 
17 | O=C(O)CCNC(=O)c1ccc(/N=N/c2ccc(O)c(C(=O)O)c2)cc1 [BALSALAZIDE] |  |  | Not Active | Not Active | Not Active | Not Active | Not Active | Not Active | Not Active | Not Active | Not Active |  | 
18 | COc1cc(OC)c(C(=O)CCCN2CCCC2)c(OC)c1 [BUFLOMEDIL] |  |  | Not Active | Not Active | Not Active | Not Active | Not Active | Not Active | Not Active | Not Active | Not Active |  | 
19 | Cn1c(=O)c2c(ncn2C)n(C)c1=O [CAFFEINE] |  |  | Not Active | Not Active | Not Active | Not Active | Not Active | Not Active | Not Active | Not Active | Not Active |  | 
20 | ClC(Cl)(Cl)Cl [CARBON TETRACHLORIDE] |  |  | Not Active | Not Active | Not Active | Not Active | Not Active | Not Active | Not Active | Not Active | Not Active |  | 
21 | CO/N=C(\C(=O)N[C@@H]1C(=O)N2C(C(=O)O)=C(COC(C)=O)CS[C@H]12)c1csc(N)n1 [CEFOTAXIME] |  |  | Not Active | Not Active | Not Active | Not Active | Not Active | Not Active | Not Active | Not Active | Not Active |  | 
22 | C[C@H]1COc2c(N3CCN(C)CC3)c(F)cc3c(=O)c(C(=O)O)cn1c23.C[C@H]1COc2c(N3CCN(C)CC3)c(F)cc3c(=O)c(C(=O)O)cn1c23.O [LEVOFLOXACIN] |  |  | Not Active | Not Active | Not Active | Not Active | Not Active | Not Active | Not Active | Not Active |  |  | 
23 | CCn1cc(C(=O)O)c(=O)c2cc(F)c(N3CCNC(C)C3)c(F)c21 (centres undefined) [LOMEFLOXACIN] |  |  | Not Active | Not Active | Not Active | Not Active |  |  | Not Active | Not Active | Not Active |  | 
24 | C[C@@H]1O[C@@H](O[C@H]2C[C@@H](O)[C@]3(CO)[C@H]4[C@H](O)C[C@]5(C)[C@@H](C6=CC(=O)OC6)CC[C@]5(O)[C@@H]4CC[C@]3(O)C2)[C@H](O)[C@H](O)[C@H]1O [OUABAIN] |  |  | Not Active | Not Active | Not Active | Not Active | Not Active | Not Active | Not Active | Not Active |  |  | 
